Structures are written as SMILES.

The target of this assay is Tyrosine-protein kinase transforming protein Src (Rous sarcoma virus). Put plainly: Inhibition of in vitro protein-tyrosine kinase activity of p60v-src enzyme in presence of 5 uM ATP.

Broadly, the IC50 is the concentration at which inhibition is half-maximal. In the case of `Nc1ccc(-c2cc(=O)c3cccc(N)c3o2)cc1` [8-Amino-2-(4-amino-phenyl)-chromen-4-one], the concentration for half-maximal inhibition (IC50) is over 50 µM.

Consider `Nc1ccc(-c2cc(=O)c3cc(N)cc(N)c3o2)cc1` [6,8-Diamino-2-(4-amino-phenyl)-chromen-4-one], for which the IC50 was over 50 µM.

Regarding `Nc1ccc(-c2cc(O)c3c(=O)c(N)ccc-3o2)cc1` [6-Amino-2-(4-amino-phenyl)-5-hydroxy-chromen-4-one], the IC50 is over 50 µM.

`Nc1cccc(-c2cc(=O)c3c(N)c(O)c(N)cc3o2)c1` [5,7-Diamino-2-(3-amino-phenyl)-6-hydroxy-chromen-4-one]: the IC50 was determined as 38.4 µM.

As for `Nc1cccc(-c2cc(=O)c3cc(N)ccc3o2)c1` [6-Amino-2-(3-amino-phenyl)-chromen-4-one], the IC50 is over 50 µM.

As for `Nc1ccc(-c2cc(=O)c3cc(N)c(O)cc3o2)cc1` [6-Amino-2-(4-amino-phenyl)-7-hydroxy-chromen-4-one], the IC50 was over 50 µM.

As for `Nc1ccc(-c2cc(=O)c3c(N)c(O)c(N)cc3o2)cc1` [5,7-Diamino-2-(4-amino-phenyl)-6-hydroxy-chromen-4-one], the IC50 is over 50 µM.

On to `COc1cc(N)c2oc(-c3ccc(N)cc3)cc(=O)c2c1` [8-Amino-2-(4-amino-phenyl)-6-methoxy-chromen-4-one], for which the IC50 was over 50 µM.

Regarding `Nc1cccc(-c2cc(=O)c3cc(N)c(O)cc3o2)c1` [6-Amino-2-(3-amino-phenyl)-7-hydroxy-chromen-4-one], the IC50 is over 50 µM.

In the case of `Nc1ccc(-c2cc(=O)c3ccc(O)c(N)c3o2)cc1` [8-Amino-2-(4-amino-phenyl)-7-hydroxy-chromen-4-one], the IC50 is over 50 µM.

On to `Nc1ccc(-c2cc(=O)c3cc(N)ccc3o2)cc1` [6-Amino-2-(4-amino-phenyl)-chromen-4-one], for which the IC50 worked out at 28.8 µM.

As for `Nc1ccc(-c2cc(=O)c3cc(O)cc(N)c3o2)cc1` [8-Amino-2-(4-amino-phenyl)-6-hydroxy-chromen-4-one], the IC50 was over 50 µM.

Consider `Nc1ccc(-c2cc(=O)c3cc(N)c(O)c(N)c3o2)cc1` [6,8-Diamino-2-(4-amino-phenyl)-7-hydroxy-chromen-4-one], for which the IC50 was over 50 µM.

Take `Nc1ccc(-c2cc(=O)c3c(O)ccc(N)c3o2)cc1` [8-Amino-2-(4-amino-phenyl)-5-hydroxy-chromen-4-one]: the IC50 is over 50 µM.

(Values after BindingDB's records for doi:10.1021/jm00046a020 (Purdue University, 1994).)
